According to the supplement of paper PMC10307832:

Tests used:
Assay in all cases: relative viability (nuclei count vs DMSO), 5 days (fraction); higher = more cells survive
[1] = tested on: NCI-H1975
Method in brief: (§1)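 Each reported value is a median over duplicate plates. It expresses relative viability: treated-well nuclei count divided by vehicle-well nuclei count. Lung cancer cell lines in 1536-well plates were dosed by pin tool a day after seeding, alone with one drug or with a fixed anchor-drug dose plus five library-drug doses (not always all listed) in √10 steps, and nuclei were counted after 5 days.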

[2] = tested on: NCI-H441
Method in brief: as §1

[3] = tested on: NCI-H1666
Method in brief: as §1

[4] = tested on: NCI-H3122
Method in brief: as §1

[5] = tested on: NCI-H2085
Method in brief: as §1

[6] = tested on: NCI-H358
Method in brief: as §1

[7] = tested on: NCI-H322M
Method in brief: as §1

[8] = tested on: HOP-62
Method in brief: as §1

[9] = tested on: NCI-H1755
Method in brief: as §1

[10] = tested on: CAL-12T
Method in brief: as §1

[11] = tested on: NCI-H2023
Method in brief: as §1

[12] = tested on: NCI-H2126
Method in brief: as §1

Compound `CC1(C)CCC(c2ccc(Cl)cc2)=C(CN2CCN(c3ccc(C(=O)NS(=O)(=O)c4ccc(N[C@H](CCN5CCOCC5)CSc5ccccc5)c(S(=O)(=O)C(F)(F)F)c4)cc3)CC2)C1` [Navitoclax] + O=C(c1cc(Cc2n[nH]c(=O)c3ccccc23)ccc1F)N1CCN(C(=O)C2CC2)CC1 [Olaparib] (partner 8 µM) has a relative viability ([1]; first compound 0.005 µM) of 0.77, a relative viability ([1]; first compound 0.01581 µM) of 0.854 and a relative viability ([1]; first compound 0.05 µM) of 0.773. It also gave a relative viability ([1]; first compound 0.1581 µM) of 0.813, a relative viability ([1]; first compound 0.5 µM) of 0.755 and a relative viability ([2]; first compound 0.005 µM) of 0.529. It also gave a relative viability ([2]; first compound 0.01581 µM) of 0.528, a relative viability ([2]; first compound 0.05 µM) of 0.627 and a relative viability ([2]; first compound 0.1581 µM) of 0.429. For the same compound, the relative viability ([2]; first compound 0.5 µM) was 0.5, the relative viability ([3]; first compound 0.005 µM) was 0.749 and the relative viability ([3]; first compound 0.01581 µM) was 0.71. It also gave a relative viability ([3]; first compound 0.05 µM) of 0.683, a relative viability ([3]; first compound 0.1581 µM) of 0.765 and a relative viability ([3]; first compound 0.5 µM) of 0.822. For the same compound, the relative viability ([4]; first compound 0.005 µM) was 0.605, the relative viability ([4]; first compound 0.01581 µM) was 0.577 and the relative viability ([4]; first compound 0.05 µM) was 0.576. For the same compound, the relative viability ([4]; first compound 0.1581 µM) was 0.655, the relative viability ([4]; first compound 0.5 µM) was 0.597 and the relative viability ([5]; first compound 0.005 µM) was 0.74. For the same compound, the relative viability ([5]; first compound 0.01581 µM) was 0.864, the relative viability ([5]; first compound 0.05 µM) was 0.596 and the relative viability ([5]; first compound 0.1581 µM) was 0.746. It also gave a relative viability ([5]; first compound 0.5 µM) of 0.815, a relative viability ([6]; first compound 0.005 µM) of 0.566 and a relative viability ([6]; first compound 0.01581 µM) of 0.751. It also gave a relative viability ([6]; first compound 0.05 µM) of 0.663, a relative viability ([6]; first compound 0.1581 µM) of 0.536 and a relative viability ([6]; first compound 0.5 µM) of 0.585. For the same compound, the relative viability ([7]; first compound 0.005 µM) was 0.8, the relative viability ([7]; first compound 0.01581 µM) was 0.984 and the relative viability ([7]; first compound 0.05 µM) was 0.754. For the same compound, the relative viability ([7]; first compound 0.1581 µM) was 0.725, the relative viability ([7]; first compound 0.5 µM) was 0.934 and the relative viability ([8]; first compound 0.005 µM) was 0.211. The relative viability ([8]; first compound 0.01581 µM) was 0.434, the relative viability ([8]; first compound 0.05 µM) was 0.507 and the relative viability ([8]; first compound 0.1581 µM) was 0.473. The relative viability ([8]; first compound 0.5 µM) was 0.432, the relative viability ([9]; first compound 0.005 µM) was 0.831 and the relative viability ([9]; first compound 0.01581 µM) was 0.929. It also gave a relative viability ([9]; first compound 0.05 µM) of 0.686, a relative viability ([9]; first compound 0.1581 µM) of 0.818 and a relative viability ([9]; first compound 0.5 µM) of 0.897. For the same compound, the relative viability ([10]; first compound 0.005 µM) was 0.715, the relative viability ([10]; first compound 0.01581 µM) was 0.651 and the relative viability ([10]; first compound 0.05 µM) was 0.674. For the same compound, the relative viability ([10]; first compound 0.1581 µM) was 0.75, the relative viability ([10]; first compound 0.5 µM) was 0.791 and the relative viability ([11]; first compound 0.005 µM) was 0.445. It also gave a relative viability ([11]; first compound 0.01581 µM) of 0.47, a relative viability ([11]; first compound 0.05 µM) of 0.534 and a relative viability ([11]; first compound 0.1581 µM) of 0.442. For the same compound, the relative viability ([11]; first compound 0.5 µM) was 0.496, the relative viability ([12]; first compound 0.005 µM) was 0.912 and the relative viability ([12]; first compound 0.01581 µM) was 0.994.
